Data on 4 compounds can be found in ChEMBL document CHEMBL1240302, “Small-molecule interaction with a five-guanine-tract G-quadruplex structure from the human MYC promoter” (Nat Chem Biol, 2005).

Calls of active or inactive are those of the source. The rule behind the calls is not given here.

For the experiment, the system named is Nucleic Acid. In words: Binding affinity to human c-MYC Pu24I G-quadruplex structure assessed as stabilization of G-quadruplex by NMR spectroscopy. The format is nucleic-acid assay.
As for `COc1cccc2c1C(=O)c1c(O)c3c(c(O)c1C2=O)C[C@@](O)(C(C)=O)C[C@@H]3O[C@H]1C[C@H](N)[C@H](O)[C@H](C)O1`, the result was Active.
Regarding `CN1CCN(c2ccc3[nH]c(-c4ccc5[nH]c(-c6ccc(O)cc6)nc5c4)nc3c2)CC1`, the outcome was Active.
The result for `CC[n+]1c(-c2ccccc2)c2cc(N)ccc2c2ccc(N)cc21` reads “Active”; that for `C[n+]1ccc(-c2c3nc(c(-c4cc[n+](C)cc4)c4ccc([nH]4)c(-c4cc[n+](C)cc4)c4ccc([nH]4)c(-c4cc[n+](C)cc4)c4nc2C=C4)C=C3)cc1`, “Active”.
